Measurements as given in patent publication US11779560B2 (priority 2020, dated 2023).

Key:
Conditions in all cases: 10-100 μM concentrations
[1] = system: HMEC-1 human dermal endothelial cells; experiment: Cell TiterGlo ATP Luminescent Cell Viability assay (total cellular ATP); assay type: cell-based
Protocol: The Cell TiterGlo ATP Luminescent Cell Viability assay (Promega Cat. #G7571) was run to measure total cellular ATP in response to compound treatment. Assays were performed using HMEC-1 human dermal endothelial cells. Compounds were screened using 8-point ½ log dilutions in duplicate in the presence of vehicle.

[2] = system: HMEC-1 human dermal endothelial cells; experiment: Mitochondrial stress test (Agilent Seahorse XFe96); assay type: cell-based
Protocol: A mitochondrial stress test was also conducted to determine the effects of the experimental compounds on cellular mitochondria. Assays were conducted using HMEC-1 human dermal endothelial cells optimized for use with the Agilent Seahorse XFe96 analyzer. HMEC-1 cells were obtained from ATCC and cultured in accordance with the supplier's guidelines: complete cell culture media consisted of MCD 131 supplemented with 10 ng/ml EGF 1 μg/ml hydrocortisone, 10 mM glutamine, 10% FBS, and 1% penicillin/streptomycin. To determine optimal cell seeding densities, cells were seeded in Agilent XF96 cell culture microplates at 80,000 cells/well at the highest concentration. […] Cell viability was assessed using trypan blue exclusion. […] (non-CO2) for 1 hour and imaged with a Cytation 5 imaging multimode plate reader (BioTek instruments) and analyzed using Prism 9.0 (GraphPad Software.) The stress test profile cycled through 18 minute exposures to oligomycin 1 μg/ml, FCCP 2 μM and antimycin A 10 μM/rotenone 1 μM. At the completion of the mitochondrial stress test, cells were imaged and Hoechst positive nuclei were quantified using the Seahorse Cell Analysis software. All data were analyzed using Wave Analysis software (version 2.6.1.53) and Prism 9.0 (GraphPad software). […]

[3] = system: mitochondrial electron transport chain and ATP synthase (Complex I-V); experiment: MitoCheck Complex I-V activity assays in isolated mitochondria; assay type: biochemical, bovine
Protocol: MitoCheck Complex I-V activity assays were conducted in an Agilent Seahorse XFe96 analyzer to determine the effects of compounds on the mitochondrial electron transport chain and ATP synthase in isolated mitochondria. Compounds were screened in a dose dependent manner using 10-point ½ log dilutions in quadruplicate along with a […] for each of the five complexes.
Complex I activity was determined using an assay that measures the rotenone-sensitive rate of NADH oxidation by complex I in isolated bovine heart mitochondria. To prevent oxidation of ubiquinol by complex III, KCN (1 mM) was present to inhibit the downstream electron transport chain. […]
Complex II activity was determined using an assay that measures the succinate dependent rate of DCPIP reduction in isolated bovine heart mitochondria. […]
Complex III activity was determined using an assay measures the rate of cytochrome c reduction by the passage of electrons from complex II to complex III via ubiquinone in isolated bovine heart mitochondria. […]
Complex IV activity was determined using an assay that measures the rate of cytochromec oxidation by complex IV in isolated bovine heart mitochondria. […]
Complex V activity was determined using an assay that measures the rate of […] resulting from a series of coupled reactions linked to the hydrolysis of ATP by complex V in isolated bovine heart mitochondria. […]

O=C(CO)NCCCN[C@@H]1CO[C@H]2[C@@H]1OC[C@@H]2O[N+](=O)[O-] [CR-0305, (3S,3aS,6R,6aR)-6-((3-(2-hydroxyacetamido)propyl)amino)hexahydrofuro[3,2-b]furan-3-yl nitrate]
No significant toxicity: Toxicity, effect of drug on ATP synthesis [1] | Toxicity, mitochondrial stress test [2] | Toxicity, MitoCheck Complex I-V activity [3]
